From patent publication US6825165B1, “Betacellulin modification” (Takeda Chemical Industries, Ltd., priority 1998, dated 2004)
No end group written: not given here.

Columns and labels:
[1] = system: 3T3 A31-714 Clone 4 cells; experiment: Cell growth promoting activity using 3T3 cells (3H-thymidine uptake), Example 25; type: cell-based, mouse; conditions: 3H-thymidine uptake into 3T3 A31-714 Clone 4; 100% is the maximum uptake of the 80-residue betacellulin
Procedure: The cell growth promoting activity was assayed by means of the ^3H-thymidine uptake into stationary 3T3 A31-714 Clone 4 (International Journal of Cancer, 12:463 (1973)) as described in Molecular Cell Biology, 8:588 (1988).
100 μL 3T3 A31-714 Clone 4 suspended to 1000 cells/mL using Dulbecco's modified Eagle MEM medium containing 5% bovine serum were seeded to 96 well plates and cultured for a day at 37° C. in carbon dioxide gas incubators (5% carbon dioxide gas, 95% air). 75 μL of supernatant was taken, and 100 μL of serum-free Dulbecco's modified Eagle MEM medium was added to adjust the serum concentration to 1%. Two more days of culture was followed by the addition of varying concentrations of the hBTC50, Mutein A, or Mutein B prepared in the above examples. 16 hours after these had been added, ^3H-thymidine (Amersham Pharmacia Biotech) was added in an amount of 0.25 μCi/well, after 4 hours the cells were washed 3 times with PBS, 100 μL of 5% SDS was added, and the cells were lysed. The cell lysate was transferred to scintillation vials, 1 mL of Scintillator A (Wako Pure Chemicals) was added, and the uptake of ^3H-thymidine into the cellwas assayed with a scintillation counter.

AR42J cells = experiment: β cell differentiation promoting activity using AR42J cells (anti-insulin immunofluorescence), Example 26; type: cell-based; conditions: 5 days incubation; for Differentiation into insulin-producing β cells (stained cells under fluorescent microscope): anti-insulin antibody/FITC staining; for Incidence of insulin-producing cells: comparison between the proteins
Procedure: Cells of the AR42J cell line derived from pancreatic cancer induced by chemical carcinogens (Christophe, Am. J. Physiol., 266: G963 (1994)) were suspended to a concentration of 10^5 cells/mL in Dulbecco's modified Eagle MEM medium containing 10% fetal calf serum and one of hBTC50, Mutein A, Mutein B, or the 80-residue betacellulin (hBTC80) prepared in accordance with the method in Japanese Unexamined Patent Application (Kokai) H10-191989. 500 μL of these suspensions was inoculated on chamber slides and incubated for 5 days at 37° C. in carbon dioxide gas incubators (5% carbon dioxide gas, 95% air). After 5 days, the cells were washed once with PBS, fixed in 10% formaldehyde, and treated for 5 min with 0.1% Triton X-100. Block Ace (Snow Brand, Japan) was then added for 40 minutes of blocking at room temperature. Anti-insulin antibodies (by Advanced Immunochemicals) diluted with 10% Block Ace were added, and reacted for 40 minutes at room temperature. 0.1% Triton X-100 was added, the reaction solution was allowed to stand for 5 minutes at room temperature, and the cells were then washed three times with PBS. FITC (fluorescein isothiocyanate) labeled anti-mouse IgG antibodies (Cappel) diluted with 10% Block Ace were added, and a reaction was brought about for 40 minutes. 0.1% Triton X-100 was added, the reaction solution was allowed to stand for 5 minutes, the cells were then washed three times with PBS, and they were then observed under a fluorescent microscope.

[2] = system: PLAP expression AR42J cells; experiment: β cell differentiation promoting activity using PLAP expression AR42J cells (AR71-104 clone), Example 27; type: cell-based; conditions: 5 days, A405, 100% is the maximum absorbance when hBTC50 was added
Procedure: The differentiation promoting activity into β cells was also determined using AR42J cells transformed with the vector having alkaline phosphatase which had been ligated as a reporter downstream of the insulin promoter. Specifically, cells which have differentiated into β cells by addition of betacellulin produce alkaline phosphatase. As a result, by assaying the alkaline phosphatase activity, the differentiation promoting activity into β cells can be quantitatively assayed.
Cells of each clone were seeded on 24-well plates and cultured for 4 days with and without the addition of 20 ng/mL 80-residue BTC, the supernatant was collected and heat treated for 30 minutes at 65° C., and the alkaline phosphatase activity in the media was then assayed. Clones showing increased alkaline phosphatase activity with the addition of 80-residue betacellulin were selected. The AR71-104 clone was used below.
PLAP expression AR42J cells constructed in 3-2) were suspended to a concentration of 3×10^4 cells/mL in Dulbecco's modified Eagle MEM medium containing 10% fetal calf serum and on of varying concentrations of the hBTC50 or Mutein A or B prepared above. […] The samples were held for 10 minutes at 37° C., and 10 μL of 20 mg/mL p-nitrophenylphosphoric acid (Sigma) was added, a reaction was brought about for 16 hours at 37° C., and the absorbance at 405 nm (A405) was determined.

## Mutein B: hBTC50 in which seven N terminal residues were substituted with five corresponding EGF residues; SEQ ID NO: 45 (NSDSECPKQYKHYCIKGRCRFVVAEQTPSCVCDEGYIGARCERVDLFY; ends and bridges not checked; cysteine pairing not given here)
[1]
  cell growth promoting activity ED50: >10.0 nM
AR42J cells
  Differentiation into insulin-producing β cells (stained cells under fluorescent microscope): cells which had differentiated into insulin-producing β cells, were found
  Incidence of insulin-producing cells: no differences in the incidence of insulin-producing cells
[2]
  activity inducing differentiation to β cells ED50: 0.7 nM

## Mutein A: hBTC50 with 3 amino acids (Asn, Pro, Ser) of the heregulin sequence inserted between Cys3-Cys4; SEQ ID NO: 44 (RKGHFSRCPKQYKHYCIKGRCRFVVAEQNPSTPSCVCDEGYIGARCERVDLFY; ends and bridges not checked; cysteine pairing not given here)
[1]
  cell growth promoting activity ED50: 0.6 nM
AR42J cells
  Differentiation into insulin-producing β cells (stained cells under fluorescent microscope): cells which had differentiated into insulin-producing β cells, were found
  Incidence of insulin-producing cells: no differences in the incidence of insulin-producing cells
[2]
  activity inducing differentiation to β cells ED50: 0.5 nM
